Experimental data reported in patent US20120164148A1, “Compositions Containing JARID1B Inhibitors and Methods for Treating Cancer” (The Wistar Institute, priority 2009, published 2012).

Legend:
[1] = tested on: WM3734^JARID1Bprom-EGFP cells; assay: Drug treatment of WM3734 JARID1Bprom-EGFP cells, flow cytometry of J/EGFP+ subpopulation and viable cells; assay type: cell-based, human; conditions: 72 hours of treatment, clinically relevant doses; threshold set at 5% (DMSO control)
Protocol: Left panels, Relative enrichment of the J/EGFP+subpopulation after 72 hours of treatment with a BRAF inhibitor (PLX4720), bortezomib (VEL), temozolomide (TMZ), or salinomycin (SAL) as determined by flow cytometry. The threshold (dotted line) for the J/EGFP+ subpopulation was set at 5% (DMSO control) based on JARID1B expression studies. Depicted box plots represent three independently performed experiments with flow cytometric determination of J/EGFP expression beyond the indicated threshold. Right panels, The number of viable cells within the total population was decreasing during drug treatment.
Flow Cytometry and Fluorescence Activated Cell Sorting. For detection of JARID1B promoter-driven EGFP signals, adherent cells were harvested with 0.05% trypsin and spheres were dissociated as described herein. Dead cells were excluded by staining for 7-AAD. After sorting, aliquots were microscopically checked and were cultured for a short-time to exclude disproportional enrichment of debris or apoptotic cells. Fluorescence-activated cell sorting was carried out using a CYTOMATION MOFLO cytometer (DakoCytomation). Flow cytometric detection of surface markers was done according to standard procedures. Briefly, cells were fixed in 4% paraformaldehyde (PFA) in PBS for 10 minutes and then were blocked with 1% BSA in PBS for 10 minutes at room temperature. Primary and secondary antibodies were incubated for 10 minutes at room temperature. Before and after antibody incubations, cells were washed three times with 1% BSA in PBS. Samples were analyzed using an EPICS XL instrument (Beckman-Coulter). Monoclonal antibodies were follows: anti-CD20 (APC-conjugated; BD PHARMINGEN), anti-CD133 (PE; Miltenyi Biotech), anti-p75/NGFR (APC; Miltenyi Biotech), and anti-MCAM (FITC; R&D Systems). Isotype-matched mouse APC- (BD PHARMINGEN), PE- (R&D Systems), or FITC-conjugated (R&D Systems) antibodies were used as controls. Flow cytometric isolation of side population cells was performed according to established methods (Goodell, et al. (1996) J. Exp. Med. 183:1797-1806). […]

[2] = tested on: JARID1B; assay: Validation of JARID1B shRNA knockdown clones (RNA, protein, BrdU, MTS, cell counts); assay type: cell-based, human; conditions: out of five shRNA clones
Description: Melanoma Samples and Cell Culture. Fresh human melanoma tissues and cells were obtained according to standard procedures, isolated and maintained in 2% fetal bovine serum (FBS)-substituted melanoma medium (‘Tu2%’) Smalley, et al. (2005) Am. J. Pathol. 166:1541-1554; Satyamoorthy, et al. (1997) Melanoma Res. 7 Suppl 2:S35-42). According to the isolation of neural stem cells and cancer stem cells from brain tumors by culturing of neurospheres (Yuan, et al. (2004) Oncogene 23:9392-9400; Galli, et al. (2004) Cancer Res. 64:7011-7021), melanoma spheres were propagated in mouse embryonic fibroblast (MEF)-conditioned human embryonic stem cell medium (hESCM) according to conventional methods (Fang, et al. (2005) supra). Before use, MEF-conditioned hESCM was mixed with fresh hESCM medium at a 7:3 ratio (‘hESCM4’) and basic fibroblast growth factor was added at 4 ng/ml. Depending on the cell line, sphere formation could be observed 2-6 weeks after starting culture in hESCM4. Spheres were dissociated by collagenase I/IV (Sigma, St. Louis, Mo.) and mechanical treatment, i.e., 200-250 units per ml DMEM (Cellgro) at 37° C. for 10 minutes plus subsequent pipetting. […]
Given the paradox of an increased in vitro self-renewal capacity without any effect on in vivo tumor initiation, it was determined whether JARID1B still could be important for the continuous maintenance of melanomas. […]

[3] = tested on: WM3734 melanomas; assay: Bortezomib treatment of xenotransplanted WM3734 melanomas with JARID1B knockdown; assay type: in vivo, NOD/LtSscidIL2Rγ^null mice; conditions: 20 μg bortezomib intraperitoneally on days 20, 22, 25, 27; JARID1B knocked-down tumors vs sh scrambled control; p=0.024 (MANOVA)
Protocol: Xenotransplanted WM3734 melanomas (mean tumor volume ˜200 mm^3) were treated with 20 μg bortezomib (dissolved in PBS and injected intraperitoneally) on days 20, 22, 25, and 27 after xenotransplantation.
Xenotransplantation Assays and Metastasis Model. To address continuous tumor maintenance in vivo, serial xenotransplantation assays with JARID1B knockdown vs. control cells were performed in NOD/LtSscidIL2Rγ^null mice. For every passage, 10^4 cells in MATRIGEL®/Tu2% at a 1:1 dilution were injected subcutaneously in mice (5 mice per sample). One passage included: injection, tumor growth, tumor dissection, cell isolation (mechanical and collagenase I/IV treatment) and purification. Melanoma cell purification was done by three-day-puromycin treatment confirmed by MCAM flow cytometry. Verification of knockdown was carried out by QRT-PCR. […] Tumor growth was measured weekly using a caliper and was terminated when the first tumor of the series reached 1000 mm^3. Metastatic progression was measured in a spontaneous metastasis model. […] Formalin-fixed, paraffin-embedded (FFPE) sections of whole lungs were H&E-stained and the numbers of macro- and micrometastases were microscopically determined (20× magnification). Two representative frontal sections per lung were analyzed. […]

Row | Compound | relative enrichment for the J/EGFP+ subpopulation [1] | knockdown phenotype [2] | tumor volume [3]
1 | CCCS(=O)(=O)Nc1ccc(F)c(C(=O)c2c[nH]c3ncc(Cl)cc23)c1F [PLX7420] | relative enrichment for the J/EGFP+ subpopulation |  | 
2 | sh JARID1B—58: shRNA clone from Sigma targeting the 3′UTR of JARID1B, SEQ ID NO:15 (CCGGCCCACCAATTTGGAAGGCATTCTCGAGAATGCCTTCCAAATTGGTGGGTTTTT) |  | significant knockdown phenotypes | 
3 | JARID1B—62: shRNA clone from Sigma targeting the coding sequence of JARID1B, SEQ ID NO:14 (CCGGCGAGATGGAATTAACAGTCTTCTCGAGAAGACTGTTAATTCCATCTCGTTTTT) |  | significant knockdown phenotypes | 
4 | CC[C@@H](C(=O)[C@@H](C)[C@@H](O)[C@H](C)[C@@H]1O[C@@H]([C@@H](CC)C(=O)O)CC[C@@H]1C)[C@H]1O[C@]2(C=C[C@@H](O)[C@]3(CC[C@@](C)([C@H]4CC[C@](O)(CC)[C@H](C)O4)O3)O2)[C@H](C)C[C@@H]1C [salinomycin] | relative enrichment for the J/EGFP+ subpopulation |  | 
5 | CC(C)C[C@H](NC(=O)[C@H](Cc1ccccc1)NC(=O)c1cnccn1)B(O)O [bortezomib] | relative enrichment for the J/EGFP+ subpopulation |  | significantly lower tumor volume
